Data on 7 molecules can be found in patent publication US20140045744A1, “CULTURED COLLECTION OF GUT MICROBIAL COMMUNITY” (THE WASHINGTON UNIVERSITY, priority 2011, published 2014).

This assay concerns E. coli MegaX DH10B T1R cells. It is filed as cell-based, Escherichia coli. As to conditions: for MIC: antibiotics used in functional metagenomic selections of E. coli libraries. From the text: To compare further the functions represented in the complete and cultured microbiota independent of annotation, antibiotic-resistance genes were captured from their microbiomes in expression vectors in Escherichia coli. Each E. coli library contained ˜1 GB of 1.5- to 4-kB fragments of microbiome DNA subcloned into an expression vector and was screened against a panel of 15 antibiotics and clinically relevant antibiotic combinations (Table 3). Genes encoding resistance to the same 14 antibiotics were captured in libraries prepared from complete and cultured fecal samples (FIG. 3G and Table 4). In one example, a screen for DNA fragments that confer resistance to the aminoglycoside amikacin produced candidate genes from the microbiomes of both complete and cultured microbial communities from Donor 1 but not from Donor 2. Two genes conferring amikacin resistance (either the 16S rRNA methylase rmtD or the aminoglycoside phosphotransferase aphA-3) were identified in 70% of the DNA fragments captured in selections for this phenotype.
DNA fragments from complete and cultured communities were cloned into an expression vector, electroporated into Escherichia coli, and screened for their ability to confer resistance to 15 different antibiotics. To this end, 10 μg of DNA purified from the two human donors' fecal microbiota, from the derived cultured communities, plus pooled contents of the arrayed strain collection were sheared to 1.5- to 4-kB fragments (Bioruptor XL), followed by size selection (1% agarose gel electrophoresis). Sheared DNA then was endrepaired (Epicentre Endlt Kit), column-purified (Qiagen Qia-Quick PCR Purification Kit), and concentrated in a vacuum evaporator (SpeedVac). […] Approximately 500 ng of the DNA fragments were ligated to 100 ng of the linearized vector in an overnight ligation reaction (Epicentre FastLink Ligation Kit). The ligation reaction was desalted by dialysis in double-distilled H2O and electroporated into E. coli MegaX DH10B T1R cells (Invitrogen). After 1 h of recovery, a small (1 μL) aliquot of the library was titered with serial dilutions onto LB agar plates containing 50 μg/mL kanamycin (to select for pZE21 transformants) and incubated at 37° C. for 16 h. The insert size distribution for each library was characterized by gel electrophoresis of amplicons obtained using primers flanking the HincII site in the multiple cloning site of pZE21 MCS1. The total size of each library was estimated by multiplying average insert size by the number of cfu in a given library. The remainder of the recovered cells was inoculated into 10 mL LB containing 50 μg/mL kanamycin and grown overnight, with shaking, at 27° C. for ˜16 h. The culture subsequently was diluted with an equal volume of LB medium containing 30% glycerol and stored at −80° C. before screening.
For functional selections, 100 μL of each library freezer stock (corresponding to 0.5-1×10^8 cfu) was plated on an LB agar plate containing kanamycin (50 μg/mL) plus one of 15 different antibiotics (Table 3). The total number of cells plated on each antibiotic represented ˜10 copies of each original unique transformant. Antibiotic-resistant colonies were scored after plates had been incubated at 37° C. for 16 h. Inserts contained in colonies with amikacin-, piperacillin- and piperacillin/tazobactam-resistant phenotypes were subjected to bidirectional Sanger sequencing (Beckman Coulter Genomics) using primers pZE21—81—104—57C (5′-[…] GGT-3′; SEQ ID NO 5) and pZE21—151—174rc—58C (5′-[…]-3′; SEQ ID NO 6). Resulting reads were trimmed to remove low-quality and vector sequences and subjected to within-library contig assembly (≧200 bp of 97% ID sequence required). Contigs and unassembled reads were mapped by BLAST to the National Center for Biotechnology Information (NCBI) nonredundant database and to a custom database of 122human gutmicrobial genomes. All sequence datasets have been deposited in the NCBI Sequence Read Archive (SRA) under accession no. […]

In the case of `O=C(N[C@H](CO)[C@H](O)c1ccc([N+](=O)[O-])cc1)C(Cl)Cl` [Cloramphenicol], the “MIC” value amounted to 8000 µg/mL. Still for that read-out and setting: under `CN(C)[C@@H]1C(O)=C(C(N)=O)C(=O)[C@@]2(O)C(O)=C3C(=O)c4c(O)cccc4[C@@](C)(O)[C@H]3[C@H](O)[C@@H]12` [Oxytetracyline] stands 8000 µg/mL; under `CN(C)[C@@H]1C(=O)C(C(N)=O)=C(O)[C@@]2(O)C(=O)C3=C(O)c4c(O)cccc4[C@@](C)(O)[C@H]3C[C@@H]12` [Tetracyline], 8000 µg/mL; under Gentamicin, 16000 µg/mL.

For the molecule Penicillin, the “MIC” value turned out to be 128000 µg/mL. For the molecule Piperacillin + Tazobactam, the “MIC (mg/mL), PI of PI + TZ” value (piperacillin part of the combination) stood at 16 mg/mL. The “MIC (mg/mL), TZ of PI + TZ” value (tazobactam part of the combination) came out at 4 mg/mL.

With Trimethoprim + Sulfamethoxazole, the “MIC (mg/mL), SX of TR + SX” value (sulfamethoxazole part of the combination) is 38 mg/mL. Where the note is “trimethoprim part of the combination”, the “MIC (mg/mL), TR of TR + SX” value is reported as 2 mg/mL.

A word on the MIC: it is the lowest concentration found to suppress growth.
